pEC50: −log10 of the molar value.
System: FSK-4 cells
Test: Assay (I): Glucose utilisation in a human epithelia cell line (FSK4 cells), D-(6-3H(N))-glucose
Type: cell-based
Conditions: 24 hours incubation, Hill equation, read-out: GlucosFSK4 EC50
Protocol: Assay (I): Glucose Utilisation in a Human Epithelia Cell Line (FSK4 cells)
The ^3H-proton will first be released in the TCA cyclus and transported to the respiratory chain where it will be incorporated into water. The water is thereafter separated from the D-(6-^3H(N))-glucose by evaporation.
FSK-4 cells obtained from ATCC (Maryland, USA), are cultured in growth medium (McCoy's medium with the following addition 100 units/ml penicillin and streptomycin and 10% FCS (fetal calf serum)) at 37° C. and 5% CO2.
The cells are then incubated for another 24 hours at 37° C. and 5% CO2.
The half maximal concentration (EC50) and maximal efficacy (Emax) are calculated using the Hill equation in GraphPad Prism 3.0 (GraphPad software, Inc.). […] From the percentage increase in glucose utilisation the linear slope is calculated using the Michaelis-Menten equation.

SMILES | pEC50
CC(C)(C)c1cc(/C=C(\C#N)S(=O)(=O)c2ccc(/C=C/c3ccccc3)cc2)cc(C(C)(C)C)c1O [Example 51, 3-(3,5-Di-tert-butyl-4-hydroxy-phenyl)-2-(4-styryl-benzenesulfonyl)-acrylonitrile] | 6.05
CC(C)CO/C=C/c1ccc(S(=O)(=O)/C(C#N)=C/c2cc(C(C)(C)C)c(O)c(C(C)(C)C)c2)cc1 [Example 52, 3-(3,5-Di-tert-butyl-4-hydroxy-phenyl)-2-[4-(2-isobutoxy-vinyl)-benzenesulfonyl]-acrylonitrile] | 6.00
